Molecular target: T1, PfTrpB^2B9 (Pyrococcus furiosus, UniProt Q8U093, E17G/F274S/F95L/I16V/I68V/T292S/T321A/V384A)
T1 construct: made in house; host or cells: E. coli BL21 E. cloni Express
Test: TTN of β-substitution reaction with L-Thr with different nucleophiles
Format: biochemical
Conditions: for TTN: LC-MS
Protocol: Total Turnover Number (TTN) determination. Measurements were made using HPLC and LC-MS instruments. The amount of Trp formed was measured at 280 nm using a standard curve with trichlorobenzene as internal standard. […] This method is insensitive to loading volume and results agreed with measurements using a standard curve. […] This same technique was used to determine the TTN of the PfTrpB^2B9 reaction with different nucleophiles. […] Reactions were set up in triplicate using a total volume of 150 μL with 25 mM nucleophile and 250 mM L-Thr in 200 mM potassium phosphate pH 8.0 in borosilicate glass vials, as plastics can absorb indoles at high temperatures. Before addition of enzyme, all reagents were transferred into a Coy anaerobic chamber with <1 ppm O2 to rapidly exchange the atmosphere in the headspace of the vials to 95/5% N2/H2, which limits competing non-catalytic oxidation of indoles. Enzyme was added in the anaerobic environment with varied catalyst loading to ensure a robust product signal in subsequent analysis. Reaction vessels were capped before being removed from the anaerobic chamber and incubated in a 75° C. water bath for 24 hours. Reactions were quenched the next day by addition of 1 volume (150 μL) of 100% ACN, mixing, and allowing to rest at room temperature for 10 min. Quenched solutions were then diluted 5-fold with 40% ACN in water and analyzed via LC-MS. In all cases, auxiliary peaks that would indicate non-catalytic degradation of substrate were present at only low levels, contributing to <1% of the total integration signal for a given wavelength. For 7-azaindole, a second peak with m/z=220 was observed that was also found in larger scale reactions and whose properties are consistent with an N-alkylated product.
With these reaction conditions in hand, a characterization of the substrate scope of the reaction with Thr was performed. A small panel of indole-like nucleophiles were screened for reaction with PfTrpB^0B2 and Ser, and a significant boosts in activity was observed. This was expanded on this panel of nucleophiles and tests for activity with PfTrpB^2B9 using an excess of Thr was performed. Reactions were run to intermediate yield to determine the TTN with a given nucleophile and the identity of the products was established with a separate preparative-scale reaction using 100 mM nucleophile, 1.0 M Thr, and 0.02-0.25 mol % PfTrpB^2B9 catalyst. […] To probe the role of electronic effects on the C—C bond forming step, activity was tested with 4-fluoro and 5-fluoroindole, which are more closely isosteric with indole but have decreased electron density in the π-system. Product formation with each substrate and 3.4-fold decreased TTN with the 4-fluoro substrate was observed, which is more electron withdrawing at C-3 than the 5-fluoro substituent. The increased steric constraints of the activity site were again clear, as no activity with the 5-chloro-, 5-bromo, and 6-hydroxyindoles, which undergo reaction with Ser, was observed. […] This regioselectivity is well known with the indazole, which we found reacts exclusively to form the N-alkylated product. […] Inclusion of DTT reduced this side reaction.

[1] = 25 mM nucleophile, 250 mM L-Thr, 24 hour reaction at 75° C.

T1 sequence (Q8U093 other isoform, or with tags, fused parts or gaps I16V/E17G/I68V/F95L/F274S/T292S/T321A/V384A): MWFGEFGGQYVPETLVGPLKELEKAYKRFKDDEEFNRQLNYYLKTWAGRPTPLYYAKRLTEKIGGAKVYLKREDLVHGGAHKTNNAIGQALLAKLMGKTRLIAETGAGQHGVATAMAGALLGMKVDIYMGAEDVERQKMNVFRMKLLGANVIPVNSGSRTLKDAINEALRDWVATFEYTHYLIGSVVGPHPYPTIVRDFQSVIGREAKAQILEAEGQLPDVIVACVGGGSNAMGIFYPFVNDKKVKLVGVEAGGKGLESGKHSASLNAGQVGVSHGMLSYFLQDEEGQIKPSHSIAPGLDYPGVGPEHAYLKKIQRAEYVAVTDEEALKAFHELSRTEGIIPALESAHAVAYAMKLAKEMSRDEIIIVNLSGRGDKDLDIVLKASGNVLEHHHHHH

Row | Structure (SMILES) | reactivity of nucleophile with PfTrpB^2B9 and excess Thr | TTN [1] | further results
1 | Cc1cc2ccccc2[nH]1 [2-Methylindole] | Good reactivity | 6400 ± 1400 | 
2 | Fc1cccc2[nH]ccc12 [4-Fluoroindole] |  | 378 ± 8 | decrease of TTN (4-fluoro versus 5-fluoro substrate): 3.4 fold
3 | Fc1ccc2[nH]ccc2c1 [5-Fluoroindole] |  | 1300 ± 280 | 
4 | Cc1ccc2cc[nH]c2c1 [6-Methylindole] | Good reactivity | 1100 ± 100 | 
5 | c1cnc2[nH]ccc2c1 [7-Azaindole] |  |  | TTN, C-alkylation [1]: C-alkylation-220 ± 40; TTN, N-alkylation [1]: N-alkylation-32 ± 3
6 | c1ccc2[nH]ncc2c1 [Indazole] |  | 500 ± 40 | 
7 | c1ccc2[nH]ccc2c1 [Indole] |  | 8200 ± 1600 | 
8 | SCc1ccccc1 [benzyl mercaptan] | low turnover |  | 
9 | c1ccc2c(c1)CCN2 [indoline] | no product formation |  | 
10 | Sc1ccccc1 [thiophenol] | low turnover |  | 

— patent US12534748B2, “Engineered beta-subunit of tryptophan synthase for production of non-canonical amino acids” (California Institute of Technology, priority 2015, dated 2026)
